Measurements reported in US8754226B2, “Piperidinyl-substituted lactams as GPR119 modulators” (Array BioPharma Inc., priority 2010, dated 2014).

System: modified version of the GPR119 receptor (94% identity to human receptor)
Experiment: cAMP production assay (LANCE cAMP kit, TR-FRET) in HEK-293 cells
Type: cell-based
Details: for cAMP production in HEK-293 cells: HEK-293 cells stably expressing modified GPR119, test compounds 0.2 nM to 10 μM, one-hour incubation at ambient temperature; for Fold over baseline: increase in cAMP relative to basal levels, agonist activity if 1.5-fold or greater
Outline: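 Doxycycline-induced (1 μg/mL, overnight) HEK-293 cells expressing modified GPR119 were thawed, 2000 cells/well, and exposed to compounds (0.2 nM-10 μM final, 0.5% DMSO) for 1 h at ambient temperature in HBSS/HEPES/BSA. cAMP was measured by LANCE TR-FRET against a standard curve. Agonism was defined as ≥1.5-fold over basal.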

Structure (SMILES) | cAMP production in HEK-293 cells | Fold over baseline
CS(=O)(=O)c1cc(F)c(N[C@H]2CCCCN(C3CCN(c4nccnc4C#N)CC3)C2=O)cc1F.Cl [Example 85, (S)-3-(4-(3-(2,5-difluoro-4-(methylsulfonyl)phenylamino)-2-oxoazepan-1-yl)piperidin-1-yl)pyrazine-2-carbonitrile hydrochloride] | 6.5 nmol | 1.9
CC(C)c1cnc(N2CCC(N3CCC(Oc4cc(F)c(S(C)(=O)=O)cc4F)C3=O)CC2)nc1 (stereo not shown) [Example 86, 3-(2,5-difluoro-4-(methylsulfonyl)phenoxy)-1-(1-(5-isopropylpyrimidin-2-yl)piperidin-4-yl)pyrrolidin-2-one] | 5.9 nmol | 1.9
CCc1cnc(N2CCC(N3CCC(Oc4cc(F)c(S(C)(=O)=O)cc4F)C3=O)CC2)nc1 (stereo not shown) [Example 87, 3-(2,5-difluoro-4-(methylsulfonyl)phenoxy)-1-(1-(5-ethylpyrimidin-2-yl)piperidin-4-yl)pyrrolidin-2-one trifluoroactetate] | 5.5 nmol | 1.8
CS(=O)(=O)c1cc(F)c(OC2CCN(C3CCN(c4ncc(-c5ccccc5)cn4)CC3)C2=O)cc1F (stereo not shown) [Example 88, 3-(2,5-difluoro-4-(methylsulfonyl)phenoxy)-1-(1-(5-phenylpyrimidin-2-yl)piperidin-4-yl)pyrrolidin-2-one trifluoroactetate] | 9.1 nmol | 2.4
CCc1cnc(N2CCC(N3CC[C@H](Nc4ccc(S(C)(=O)=O)cc4F)C3=O)CC2)cn1 [Example 89, (S)-1-(1-(5-ethylpyrazin-2-yl)piperidin-4-yl)-3-(2-fluoro-4-(methylsulfonyl)phenyl-amino)pyrrolidin-2-one trifluoroactetate] | 23.1 nmol | 4.8
CS(=O)(=O)c1cc(F)c(O[C@H]2CCN(C3CCN(c4ncc(Br)cn4)CC3)C2=O)cc1F [Example 90, (S)-1-(1-(5-bromopyrimidin-2-yl)piperidin-4-yl)-3-(2,5-difluoro-4-(methylsulfonyl)phenoxy)pyrrolidin-2-one] | 11.7 nmol | 2.7
CS(=O)(=O)c1ccc(O[C@H]2CCN(C3CCN(c4cnc(Cl)cn4)CC3)C2=O)c(F)c1 [Example 91, (S)-1-(1-(5-chloropyrazin-2-yl)piperidin-4-yl)-3-(2-fluoro-4-(methylsulfonyl)phenoxy)pyrrolidin-2-one] | 38.0 nmol | 3.9
CS(=O)(=O)c1cc(F)c(O[C@H]2CCN(C3CCN(c4ncc(-c5ccccc5)cn4)CC3)C2=O)cc1F [Example 92, S-3-(2,5-difluoro-4-(methylsulfonyl)phenoxy)-1-(1-(5-phenylpyrimidin-2-yl)piperidin-4-yl)pyrrolidin-2-one] | 16.6 nmol | 3.0
Cc1ccccc1-c1cnc(N2CCC(N3CC[C@H](Oc4cc(F)c(S(C)(=O)=O)cc4F)C3=O)CC2)nc1 [Example 93, (S)-3-(2,5-difluoro-4-(methylsulfonyl)phenoxy)-1-(1-(5-o-tolylpyrimidin-2-yl)piperidin-4-yl)pyrrolidin-2-one] | 11.1 nmol | 2.2
CS(=O)(=O)c1cc(F)c(O[C@H]2CCN(C3CCN(c4ncc(-c5ccccn5)cn4)CC3)C2=O)cc1F [Example 94, (S)-3-(2,5-difluoro-4-(methylsulfonyl)phenoxy)-1-(1-(5-(pyridin-2-yl)pyrimidin-2-yl)piperidin-4-yl)pyrrolidin-2-one] | 6.9 nmol | 2.0
CS(=O)(=O)c1cc(F)c(O[C@H]2CCN(C3CCN(c4ncc(-c5ncccn5)cn4)CC3)C2=O)cc1F [Example 95, (S)-1-(1-(2,5′-bipyrimidin-2′-yl)piperidin-4-yl)-3-(2,5-difluoro-4-(methylsulfonyl)phenoxy)pyrrolidin-2-one] | 9.0 nmol | 2.3
CCc1cnc(N2CCC(N3CC[C@H](Oc4cc(C)c(S(C)(=O)=O)cc4F)C3=O)CC2)nc1 [Example 96, (S)-1-(1-(5-ethylpyrimidin-2-yl)piperidin-4-yl)-3-(2-fluoro-5-methyl-4-(methylsulfonyl)phenoxy)pyrrolidin-2-one] | 31.7 nmol | 3.5
CCc1cnc(N2CCC(N3CC[C@H](Oc4cc(C)c(Br)cc4F)C3=O)CC2)nc1 [Example 97, (S)-3-(4-bromo-2-fluoro-5-methylphenoxy)-1-(1-(5-ethylpyrimidin-2-yl)piperidin-4-yl)pyrrolidin-2-one] | 15.3 nmol | 2.2
CCc1cnc(N2CCC(N3CC[C@H](Oc4cc(C)c(C#N)cc4F)C3=O)CC2)nc1 [Example 98, (S)-4-(1-(1-(5-ethylpyrimidin-2-yl)piperidin-4-yl)-2-oxopyrrolidin-3-yloxy)-5-fluoro-2-methylbenzonitrile] | 31.2 nmol | 3.5
CS(=O)(=O)c1ccc(N[C@H]2CCN(C3CCN(c4ccc(C(F)(F)F)cn4)CC3)C2=O)c(F)c1 [Example 99, (S)-3-(2-fluoro-4-(methyl-sulfonyl)phenylamino)-1-(1-(5-(trifluoromethyl)pyridin-2-yl)piperidin-4-yl)pyrrolidin-2-one] | 12.4 nmol | 3.5
CS(=O)(=O)c1cc(F)c(N[C@H]2CCN(C3CCN(c4ccc(C(F)(F)F)cn4)CC3)C2=O)cc1F [Example 100, (S)-3-(2,5-difluoro-4-(methylsulfonyl)phenylamino)-1-(1-(5-(trifluoromethyl)pyridin-2-yl)piperidin-4-yl)pyrrolidin-2-one] | 8.4 nmol | 2.6
CS(=O)(=O)c1cc(F)c(N[C@H]2CCN(C3CCN(c4ccc(C(F)(F)F)cn4)CC3)C2=O)c(F)c1 [Example 101, (S)-3-(2,6-difluoro-4-(methylsulfonyl)phenylamino)-1-(1-(5-(trifluoromethyl)pyridin-2-yl)piperidin-4-yl)pyrrolidin-2-one] | 6.6 nmol | 2.0
CS(=O)(=O)c1ccc(N[C@H]2CCN(C3CCN(c4ncc(C(F)(F)F)cc4Cl)CC3)C2=O)c(F)c1 [Example 102, (S)-1-(1-(3-chloro-5-(trifluoromethyl)pyridin-2-yl)piperidin-4-yl)-3-(2-fluoro-4-(methylsulfonyl)phenylamino) pyrrolidin-2-one] | 15.5 nmol | 3.4
CS(=O)(=O)c1ccc(N[C@H]2CCN(C3CCN(c4ccc(C(F)(F)F)cn4)CC3)C2=O)c(F)c1 [Example 103, (S)-3-(2-fluoro-4-(methyl-sulfonyl)phenylamino)-1-(1-(5-(trifluoromethyl)pyridin-2-yl)piperidin-4-yl)pyrrolidin-2-one] | 15.4 nmol | 2.7
CS(=O)(=O)c1cc(F)c(N[C@H]2CCN(C3CCN(c4ccc(C(F)(F)F)cn4)CC3)C2=O)cc1F [Example 104, (S)-3-(2,5-difluoro-4-(methylsulfonyl)phenyl-amino)-1-(1-(5-(trifluoro-methyl)pyridin-2-yl)piperidin-4-yl)pyrrolidin-2-one] | 13.5 nmol | 2.8
CS(=O)(=O)c1cc(F)c(N[C@H]2CCN(C3CCN(c4ccc(C(F)(F)F)cn4)CC3)C2=O)c(F)c1 [Example 105, (S)-3-(2,6-difluoro-4-(methylsulfonyl)phenyl-amino)-1-(1-(5-(trifluoromethyl)pyridin-2-yl)piperidin-4-yl)pyrrolidin-2-one] | 11.5 nmol | 1.6
CS(=O)(=O)c1ccc(N[C@H]2CCN(C3CCN(c4cnccn4)CC3)C2=O)c(F)c1 [Example 106, (S)-3-(2-fluoro-4-(methylsulfonyl)phenyl-amino)-1-(1-(pyrazin-2-yl)piperidin-4-yl)pyrrolidin-2-one] | 17.8 nmol | 3.0
CS(=O)(=O)c1ccc(N[C@H]2CCN(C3CCN(c4ncc(C(F)(F)F)cc4Cl)CC3)C2=O)c(F)c1 [Example 107, (S)-1-(1-(3-chloro-5-(trifluoromethyl)pyridin-2-yl)piperidin-4-yl)-3-(2-fluoro-4-(methylsulfonyl)phenylamino)pyrrolidin-2-one] | 20.9 nmol | 3.2
CS(=O)(=O)c1cc(F)c(N[C@H]2CCN(C3CCN(c4ncc(C(F)(F)F)cc4Cl)CC3)C2=O)c(F)c1 [Example 108, (S)-1-(1-(3-chloro-5-(trifluoromethyl)pyridin-2-yl)piperidin-4-yl)-3-(2,6-difluoro-4-(methylsulfonyl)phenyl-amino)pyrrolidin-2-one] | 15.8 nmol | 2.6
CS(=O)(=O)c1ccc(N[C@H]2CCN(C3CCN(c4ncc(Cl)cc4Cl)CC3)C2=O)c(F)c1 [Example 109, (S)-1-(1-(3,5-dichloropyridin-2-yl)piperidin-4-yl)-3-(2-fluoro-4-(methylsulfonyl)phenyl-amino)pyrrolidin-2-one] | 15.8 nmol | 2.9
CS(=O)(=O)c1cc(F)c(N[C@H]2CCN(C3CCN(c4ncc(Cl)cc4Cl)CC3)C2=O)c(F)c1 [Example 110, (S)-1-(1-(3,5-dichloropyridin-2-yl)piperidin-4-yl)-3-(2,6-difluoro-4-(methylsulfonyl)phenyl-amino)pyrrolidin-2-one] | 29.3 nmol | 2.3
